The target in one series is HIV-1 integrase (Human immunodeficiency virus type 1 group M subtype B, UniProt P12497). The experiment in a line: HIV-1 integrase inhibition assay (microtiter plate, substrate/target DNA, OD 405 nm).

Usually melting point stands for the temperature of the solid-liquid transition. One may read the IC50 as the midpoint of a concentration-inhibition curve. Low readings indicate greater potency in that assay, high ones weaker potency in that assay.

Structures can show the parent of a compound that is named as a salt.

Description for HIV-1 integrase: (2) Calculations of the Percent Inhibitions (the IC50 Values of Test Compounds)
Streptavidin, obtained from Vector Laboratories, was dissolved in 0.1 M carbonate buffer (composition: 90 mM Na2CO3, 10 mM NaHCO3) at concentration of 40 μg/ml. After coating each well of microtiter plates (obtained from NUNC) with 50 μl of the above solution at 4° C. over night, each well was washed twice with PBS (composition: 13.7 mM NaCl, 0.27 mM KCl, 0.43 mM Na2HPO4, 0.14 mM KH2PO4) and blocked with 300 μl of 1% skim milk in PBS for 30 min. Additionally, each well was washed twice with PBS and added 50 μl of substrate DNA solution (2 pmol/μl). The microtiter plates were kept at room temperature for 30 min. Then, each well was washed twice with PBS and once with H2O.
Subsequently, in the each well prepared above were added 45 μl of the reaction buffer prepared from 12 μl of the buffer (composition: 150 mM MOPS (pH 7.2), 75 mM MnCl2, 50 mM 2-mercaptoethanol, 25% glycerol, 500 μg/ml bovine serum albumin-fraction V), 1 μl of target DNA (5 pmol/μl), and 32 μl of the distilled water. Additionally, 6 μl of either a test compound in DMSO or DMSO for positive control(PC) was mixed with the above reaction buffer, then 9 μl of an integrase solution (30 pmol) was added and mixed well. In the well of negative control (NC) was added 9 μl of the integrase dilution buffer (composition: 20 mM MOPS (pH7.2), 400 mM potassium glutamate, 1 mM EDTA, 0.1% NP-40, 20% glycerol, 1 mM DTT, 4M urea).
The microtiter plates were incubated at 30° C. for 1 hour. The reaction solution was removed and each well was washed twice with PBS. Subsequently, each well of the microtiter plates was filled with 100 μl of anti-digoxigenin antibody labeled with alkaline phosphatase (Sheep Fab fragment: obtained from Boehringer) and incubated at 30° C. for 1 hour. Then, each well was washed twice with 0.05% Tween20 in PBS and once with PBS. Next, 150 μl of the Alkaline phosphatase reaction buffer (composition: 10 mM p-Nitrophenylphosphate (obtained from Vector Laboratories), 5 mM MgCl2, 100 mM NaCl, 100 mM Tris-HCl (pH 9.5))was added in each well. […] The optical density (OD) at 405 nm of each well was measured and the percent inhibition was determined by the following expression.
The percent inhibition (%)=100[1-{(C abs.−NC abs.)/(PC abs.−NC abs.)}]
C abs.; the OD of the well of the compounds
NC abs.: the OD of the negative control (NC)
PC abs.: the OD of the positive control (PC)
IC50(μg/ml)=x−{(X−50)(x−y)/(X−Y)}

For the compound `O=C(Nc1ccccn1)C(O)=CC(=O)c1ccc(Cc2ccc(F)cc2)o1` [I-135, 4-[5-(4-Fluorobenzyl)furan-2-yl]-2-hydroxy-4-oxo-2-butenoic acid pyridin-2-yl amide], the melting point is > 250 °C. `O=C(Nc1ccccc1)C(O)=CC(=O)c1ccc(Cc2ccc(F)cc2)o1` [I-137, 4-[5-(4-Fluorobenzyl)furan-2-yl]-2-hydroxy-4-oxo-2-butenoic acid phenyl amide] had a melting point of 132 to 134 °C.

`O=C(C=C(O)c1nc[nH]n1)c1cc(Cl)c(Cc2ccc(F)cc2)o1` [I-86, 1-[4-Chloro-5-(4-fluorobenzyl)furan-2-yl]-3-hydroxy-3-(1H-1,2,4-triazol-3-yl)-propenone] registered a melting point of 203 to 204 °C. The same compound had an IC50 against HIV-1 integrase of 1440 nM.

For the compound `O=C(Nc1nncs1)C(O)=CC(=O)c1ccc(Cc2ccc(F)cc2)o1` [I-139, 4-[5-(4-Fluorobenzyl)furan-2-yl]-2-hydroxy-4-oxo-2-butenoic acid ([1,3,4]thiadiazol-2-yl)amide], the melting point is 199 to 201 °C (dec.). For `O=C(Nc1nccs1)C(O)=CC(=O)c1ccc(Cc2ccc(F)cc2)o1` [I-136, 4-[5-(4-Fluorobenzyl)furan-2-yl]-2-hydroxy-4-oxo-2-butenoic acid thiazol-2-yl amide], the melting point is 198 °C (dec.).

Turning to `O=C(C=C(O)c1nn[nH]n1)c1occc1Cc1ccc(F)cc1` [I-46, 1-[3-(4-Fluorobenzyl)furan-2-yl]-3-hydroxy-3-(2H-tetrazol-5-yl)-propenone], the melting point is 171 to 174 °C. In turn, `O=C(C=C(O)c1nn[nH]n1)c1cn(S(=O)(=O)c2ccccc2)cc1CCc1ccccc1` [I-31, 1-[[1-Benzenesulfonyl-4-(2-phenylethyl)]pyrrol-3-yl]-3-hydroxy-3-(2H-tetrazol-5-yl)-propenone] had a melting point of 178 to 181 °C. Still for that read-out and setting: then `O=C(C=C(O)c1nn[nH]n1)c1c[nH]cc1CCc1ccccc1` [I-25, 3-Hydroxy-1-[(4-(2-phenylethyl))pyrrol-3-yl]-3-(2H-tetrazol-5-yl)-propenone], with 228 to 230 °C; and `O=C(O)C(O)=CC(=O)c1ccn(S(=O)(=O)c2ccccc2)c1` [I-23, 4-(1-Benzenesulfonylpyrrol-3-yl)-2-hydroxy-4-oxo-2-butenoic acid], with 186 to 188 °C; and `O=C(C=C(O)c1nn[nH]n1)c1ccoc1Cc1ccc(F)cc1` [I-52, 1-[2-(4-Fluorobenzyl)furan-3-yl]-3-hydroxy-3-(2H-tetrazol-5-yl)-propenone], with 150 to 153 °C. For the compound `O=C(C=C(O)c1nc[nH]n1)c1ccc(Cc2ccccc2Cl)o1` [I-80, 1-[5-(2-Chlorobenzyl)furan-2-yl]-3-hydroxy-3-(1H-1,2,4-triazol-3-yl)-propenone], the melting point fell in the range of 169 to 171 °C. This compound showed an IC50 at HIV-1 integrase of 1610 nM. `NC(=O)C(O)=CC(=O)c1ccc(Cc2ccc(F)cc2)o1` [I-134, 4-[5-(4-Fluorobenzyl)furan-2-yl]-2-hydroxy-4-oxo-2-butenoic acid amide]: the melting point was 113 to 115 °C. In the case of `COCc1nc(C(O)=CC(=O)c2ccc(Cc3ccc(F)cc3)o2)n[nH]1` [I-97], the melting point is 167 to 168 °C. Moreover, inhibition at HIV-1 integrase was half-maximal at 1710 nM (IC50). For `O=C(C=C(O)c1nc[nH]n1)c1ccc(Cc2cccs2)o1` [I-83, 3-Hydroxy-1-[[5-(thiophen-2-yl)methyl]furan-2-yl]-3-(1H-1,2,4-triazol-3-yl)-propenone] the same measures were 207 to 208 °C and 4980 nM. The compound `O=C(C=C(O)c1ncc[nH]1)c1ccc(Cc2ccc(F)cc2)o1` (as salt: hydrochloride) [I-101, 1-[5-(4-Fluorobenzyl)furan-2-yl]-3-hydroxy-3-(1H-imidazol-2-yl)-propenone hydrochloride] came in with a melting point of 186 to 191 °C. The compound `O=C(C=C(O)c1nc[nH]n1)c1ccc(Cc2ccc(F)cc2F)o1` [I-74, 1-[5-(2,4-Difluorobenzyl)furan-2-yl]-3-hydroxy-3-(1H-1,2,4-triazol-3-yl)-propenone] returned a melting point of 171 to 173 °C. The IC50 against HIV-1 integrase was 1300 nM. Turning to `O=C(C=C(O)c1ncccn1)c1cnc(Cc2ccc(F)cc2)o1` [I-152, 1-[2-(4-Fluorobenzyl)oxazolyl-5-yl]-3-hydroxy-3-(pyrimidin-2-yl)-propenone], the melting point fell in the range of 97 to 100 °C. On to `O=C(C=C(O)c1nc[nH]n1)c1ccc(Cc2ccsc2Cl)o1` [I-91, 1-[[5-(2-Chlorothiophen-3-yl)methyl]furan-2-yl]-3-hydroxy-3-(1H-1,2,4-triazol-3-yl)-propenone], for which the melting point was in the range of 105 to 106 °C. Besides, the IC50 against HIV-1 integrase is 1790 nM.

For `Cn1ccnc1C(O)=CC(=O)c1ccc(Cc2ccc(F)cc2)o1` [I-100, 1-[5-(4-Fluorobenzyl)furan-2-yl]-3-hydroxy-3-(1-methyl-1H-imidazol-2-yl)-propenone], the melting point was in the range of 56 to 57 °C. Moreover, the IC50 against HIV-1 integrase is 4900 nM. At HIV-1 integrase, `O=C(C=C(O)c1nccs1)c1ccc(Cc2ccc(F)cc2)o1` [I-104, 1-[5-(4-Fluorobenzyl)furan-2-yl]-3-hydroxy-3-(thiazol-2-yl)-propenone] showed an IC50 of 1760 nM. Compound `O=C(C=C(O)c1nc[nH]n1)c1occc1Cc1ccc(F)cc1` [I-45, 1-[3-(4-Fluorobenzyl)furan-2yl]-3-hydroxy-3-(1H-1,2,4-triazol-3-yl)-propenone] gave a melting point of 221 to 223 °C.

On to `O=C(C=C(O)c1nc[nH]n1)c1cnc(Cc2ccc(F)cc2)o1` [I-150, 1-[2-(4-Fluorobenzyl)oxazolyl-5-yl]-3-hydroxy-3-(1H-1,2,4-triazol-3-yl)-propenone], for which the melting point is 200 to 203 °C. On HIV-1 integrase, this compound gave an IC50 of 3120 nM. For `CCCn1cc(Cc2ccc(F)cc2)c(C(=O)C=C(O)c2nc[nH]n2)c1` [I-35, 1-[[4-(4-Fluorobenzyl)-1-n-propyl]pyrrol-3-yl]-3-hydroxy-3-(1H-1,2,4-triazol-3-yl)-propenone], the melting point was in the range of 210 to 211 °C. For the compound `O=C(O)C(O)=CC(=O)c1cc[nH]c1` [I-22, 2-Hydroxy-4-oxo-4-(pyrrol-3-yl)-2-butenoic acid], the melting point is 185 to 192 °C. Take `O=C(C=C(O)c1nc[nH]n1)c1ccc(C(O)c2ccc(F)cc2)o1` (stereo not shown) [I-94, 1-[5-(4-Fluorophenyl-hydroxy-methyl)furan-2-yl]-3-hydroxy-3-(1H-1,2,4-triazol-3-yl)-propenone]: the melting point was 191 to 192 °C (dec.). The IC50 at HIV-1 integrase is 4860 nM. `O=C(O)C(O)=CC(=O)c1ccc(Cc2ccc(F)cc2)o1` [I-54, 4-[5-(4-Fluorobenzyl)furan-2-yl]-2-hydroxy-4-oxo-2-butenoic acid] registered a melting point of 145 to 148 °C. The 50% inhibitory concentration (IC50) at HIV-1 integrase is 827 nM. Turning to `O=C(C=C(O)c1nc[nH]n1)c1c[nH]cc1Cc1ccc(F)cc1` [I-14, 1-[4-(4-Fluorobenzyl)pyrrol-3-yl]-3-hydroxy-3-(1H-1,2,4-triazol-3-yl)-propenone], the melting point is 210 to 213 °C. `Cc1cc(Cc2ccc(F)cc2)oc1C(=O)C=C(O)c1nc[nH]n1` [I-61, 1-[[5-(4-Fluorobenzyl)-3-methyl]furan-2-yl]-3-hydroxy-3-(1H-1,2,4-triazol-3-yl)-propenone] had a melting point of 191 to 192 °C. This compound had a half-maximal inhibitory concentration (IC50) on HIV-1 integrase of 2080 nM. Compound `O=C(C=C(O)c1ccccn1)c1cnc(Cc2ccc(F)cc2)o1` [I-151, 1-[2-(4-Fluorobenzyl)oxazolyl-5-yl]-3-hydroxy-3-(pyridin-2-yl)-propenone] returned a melting point of 108 to 109 °C. As to `O=C(C=C(O)c1nc[nH]n1)c1ccc(Cc2ccsc2)o1` [I-85, 3-Hydroxy-1-[[5-(thiophen-3-yl)methyl]furan-2-yl]-3-(1H-1,2,4-triazol-3-yl)-propenone], the melting point was 210 to 211 °C. Also, the IC50 against HIV-1 integrase was 4650 nM. On to `O=C(Nc1nc[nH]n1)C(O)=CC(=O)c1ccc(Cc2ccc(F)cc2)o1` [I-138, 4-[5-(4-Fluorobenzyl)furan-2-yl]-2-hydroxy-4-oxo-2-butenoic acid (1H-1,2,4-triazol-3-yl)amide], for which the melting point is 250 °C (dec.). As for `O=C(C=C(O)c1nc[nH]n1)c1ccc(Sc2ccc(F)cc2F)o1` [I-70, 1-[5-(2,4-Difluorophenylthio)furan-2-yl]-3-hydroxy-3-(1H-1,2,4-triazol-3-yl)-propenone], the melting point was 158 to 160 °C. The compound further showed an IC50 at HIV-1 integrase of 1200 nM. In the same order, the values of `CCCc1nc(C(O)=CC(=O)c2ccc(Cc3ccc(F)cc3)o2)n[nH]1` [I-112, 1-[5-(4-Fluorobenzyl)furan-2-yl]-3-hydroxy-3-(5-propyl-1H-1,2,4-triazol-3yl)-propenone] are 167 to 168 °C and 1720 nM. For the compound `O=C(C=C(O)c1ccccn1)c1ccc(Cc2ccc(F)cc2)o1` [I-106, 1-[5-(4-Fluorobenzyl)furan-2-yl]-3-hydroxy-3-(pyridin-2-yl)-propenone], the melting point is 84 to 85 °C. Still for that read-out and setting: the result for `O=C(C=C(O)c1nc[nH]n1)c1ccoc1Cc1ccc(F)cc1` [I-49, 1-[2-(4-Fluorobenzyl)furan-3-yl]-3-hydroxy-3-(1H-1,2,4-triazol-3-yl)-propenone] reads 170 to 177 °C.

At HIV-1 integrase, `O=C(C=C(O)c1ncc[nH]1)c1ccc(Cc2ccc(F)cc2)o1` [I-101, 1-[5-(4-Fluorobenzyl)furan-2-yl]-3-hydroxy-3-(1H-imidazol-2-yl)-propenone hydrochloride] had an IC50 of 1700 nM. In other words, the single-digit micromolar range. Consider `O=C(C=C(O)c1nn[nH]n1)c1ccc(Cc2ccc(F)cc2)o1` [I-55, 1-[5-(4-Fluorobenzyl)furan-2-yl]-3-hydroxy-3-(2H-tetrazol-5-yl)-propenone], for which the melting point fell in the range of 121 to 123 °C. `O=C(C=C(O)c1nc[nH]n1)c1ccc(Sc2ccc(F)cc2)o1` [I-68, 1-[5-(4-Fluorophenylthio)furan-2-yl]-3-hydroxy-3-(1H-1,2,4-triazol-3-yl)-propenone] gave a concentration for half-maximal inhibition (IC50) against HIV-1 integrase of 996 nM. This lies in the sub-micromolar range.

These data come from patent US6620841B1, “Aromatic heterocycle compounds having HIV integrase inhibiting activities” (Shionogi & Co., Ltd., priority 1998, dated 2003).
